# Results from patent US20050053921A1, “Systems for screening anti-hepatitis drugs” (priority 2003, published 2005).
# Assays:
# [1] = target: NS3/4A protease (Hepatitis C virus genotype 1a, UniProt P27958); assay: cell-based; set-up: species or system HCV type 1a
# Protocol: One of the cloned cell lines was further infected with the lentiviral vector encoding NS 3/4A gene. After zeocin selection (250 μg/ml) for 3 to 4 weeks, one zoscine-resistant clone was obtained. This cell line was confirmed by Western blot to express both NS3/4A protease and EG(D4AB)SEAP, and therefore designated as 293P-EG(Δ4AB)SEAP-NS3/4A.
# More specifically, 293P-EG(Δ4AB)SEAP-NS3/4A cells were seeded in 96-well plates (1.5×10^4 cells per well) and cultured at 37° C. overnight. […] Two days later, the culture medium in each well was replaced with fresh phenol red-free DMEM/10% FBS containing the same concentration of drugs. After another day, the culture medium was collected and the SEAP activity was measured using a Phospha-Light assay kit (Tropix, Foster City, Calif., USA) according to manufacturer's instruction.
# [2] = system: 293P-EG(Δ4AB)SEAP-NS3/4A cells; assay: MTS cellular toxicity assay; type: cell-based; settings: concentration up to 10 μM
# [3] = target: T1, NS3/4A protease in Ava5-EG(Δ4AB)SEAP cells (Hepatitis C virus genotype 1b, UniProt Q9WMX2); assay: SEAP activity in medium of stable Ava5-EG(Δ4AB)SEAP cells; type: cell-based, HCV; settings: for extracellular SEAP activity: TPCK 0-40 μM or IFN-γ 0-100 I.U./ml
# T1 construct: Ava5 cells expressed endogenous NS3/4A protease; endogenous in cells; host or cells: Ava5 cells (Huh-7 carrying an HCV subgenomic replicon)
# Protocol: (§1) After the cotransfection, culture media and cell lysates were harvested at 12-hour intervals. The SEAP activity in the culture medium and the β-galactosidase activity in the cell lysates were measured using Phospha-Light and Galacto-Star assay kits (Tropix, Foster, Calif., USA), respectively. The respective chemiluminescent intensities were detected by a Top Counter Microplate Scintillation and Luminescence Counter (Packard, Meriden, Conn., USA). The intensities reflected the relative activities of SEAP and […]. In these experiments, the β-gal activity was used to normalize transfection efficiency according standard techniques. Meanwhile, fluorescence emitted from the green fluorescent protein was examined using a fluorescence microscope (Nikon DIAPHOT 300).
# Huh-7 or Ava5 cells were seeded in 24-well plates at a density of 2×10^4 cells per well. After incubation at 37° C. overnight, the cells were transduced with serial dilutions of lentiviral particles in the presence of 6 μg/ml polybrene (Sigma, St. Louis, Mo., USA) in the manner described above. After incubation for 24 hours, the virus-containing medium was replaced by a fresh medium and the cells were incubated for another 2 days. The cells were then selected in the presence of 10 μg/ml of blasticidin for 3-4 weeks.
# One blasticidin-resistant Huh-7 clone and two blasticidin-resistant Ava5 clones were obtained. Cell lines thus produced were designated as Huh-7-EG(Δ4AB)SEAP and […], respectively. The cells were then examined for expression of EG(Δ4AB)SEAP and the amount NS3 protein by Western blot analysis using anti-EGFP antibody and anti-NS3 antibody, respectively. […] They also expressed free EGFP, resulting from the cleavage of the EG(Δ4AB)SEAP by NS3/4A protease. In naive Huh-7 and Ava5 cells, neither free EGFP nor NS3 could be detected.
# (§2) Ava5-EG(Δ4AB)SEAP clone 1 was further treated by IFN-α (0-50 units/ml) in the manner described above. They, the cells were examined for cellular NS3/4A protein and HCV RNA levels by western blot and dot blot, respectively. The dot blot was conducted as follows: RNA was extracted using TRIZOL reagent (Invitrogen). Three micrograms of RNA was dissolved in 100 μl of TE buffer (10 mM Tris-HCl, 1 mM EDTA, pH 7.5) and 60 μl of 20×SSC, and 40 μl of 37% formaldehyde stock solution were added. The samples were incubated at 60° C. for 15 min and then applied to pre-wetted nylon membrane using an S&S Minifold® I dot-blot device (Schleicher & Schuell GmbH, Relliehausen, Germany). Each well was washed twice with 6×SSC. Bound RNA was immobilized onto the membrane by UV-cross linking (Stratagene, La Jolla, Calif., USA) under the autocross-link condition, then hybridization and counting were conducted as described (Lee et al., 2003. Anal. Biochem.316, 162-170a). The membrane was probed with NS5B gene fragment of HCV labeled with […] by rediprime II random primer labeling system (Amersham Biosciences, Buckinghamshire, England). The blots were visualized by autoradiography and intensities of the blots were measured by densitometry (UVP GDS-8000 BioImaging System, Upland, Calif., USA).
# The just-described cell line was used to examined several other known anti-HCV compounds, such as an NS3/4A inhibitor, N-tosyl-1-phenylalanine chloromethyl ketone (TPCK) (Berdichevsky et al., 2003, J. Virol. Methods 107, 245-255.), and IFN-γ (Frese et al., 2002, Hepatology 35, 694-703.). […]
# [4] = system: endogenous NS3/4A protease in Ava5 cells; assay: SEAP activity in medium of Ava5 cells transiently transfected with EG(Δ4AB)SEAP; type: cell-based, HCV; settings: 100 IU/ml
# Protocol: as §1
# Ava5 cells expressed endogenous NS3/4A protease. […] Western blotting was also conducted in the same manner.
# [5] = system: HCV subgenomic replicons (HCV RNA); assay: HCV RNA level by Northern hybridization in Ava5 cells expressing EG(Δ4AB)SEAP; type: cell-based; settings: 100 IU/ml
# [6] = system: HCV RNA; assay: HCV RNA level by dot blot in Ava5-EG(Δ4AB)SEAP clone 1; type: cell-based; settings: 0-50 units/ml
# Protocol: as §2
# [7] = system: NS3/4A protein; assay: Cellular NS3/4A protein level by western blot in Ava5-EG(Δ4AB)SEAP clone 1; type: cell-based, HCV; settings: 0-50 units/ml
# Protocol: as §2
# [8] = system: HCV NS3 protease; settings: 100 IU/ml, Ava5 cells, especially after 3 days of treatment
# Protocol: They were maintained in DMEM/10% FBS/1 mg/ml G418 (Geneticin) and DMEM/10% FBS, respectively. Ava5 cells expressed endogenous NS3/4A protease. The above-described dual-reporter construct was transient transfected into the cells in the same manner descried above except that FuGENE 6 (Roche), instead of LipofectamineTM was used. Western blotting was also conducted in the same manner.
# Ava5 cells expressing EG(Δ4AB)SEAP were then tested for the ability to screen for HCV protease inhibitors. More specifically, the cells were treated with IFN-α (Schering-Plough Corp., Kenilworth, N.J., USA) and examined for the SEAP activity in their medium in the manner described above.
# The protein level of NS3 protease was also determined by standard techniques.
# [9] = Ava5-EG(Δ4AB)SEAP cells, 72 hours
# T1 sequence (Q9WMX2 1027-1657, stated change not applied): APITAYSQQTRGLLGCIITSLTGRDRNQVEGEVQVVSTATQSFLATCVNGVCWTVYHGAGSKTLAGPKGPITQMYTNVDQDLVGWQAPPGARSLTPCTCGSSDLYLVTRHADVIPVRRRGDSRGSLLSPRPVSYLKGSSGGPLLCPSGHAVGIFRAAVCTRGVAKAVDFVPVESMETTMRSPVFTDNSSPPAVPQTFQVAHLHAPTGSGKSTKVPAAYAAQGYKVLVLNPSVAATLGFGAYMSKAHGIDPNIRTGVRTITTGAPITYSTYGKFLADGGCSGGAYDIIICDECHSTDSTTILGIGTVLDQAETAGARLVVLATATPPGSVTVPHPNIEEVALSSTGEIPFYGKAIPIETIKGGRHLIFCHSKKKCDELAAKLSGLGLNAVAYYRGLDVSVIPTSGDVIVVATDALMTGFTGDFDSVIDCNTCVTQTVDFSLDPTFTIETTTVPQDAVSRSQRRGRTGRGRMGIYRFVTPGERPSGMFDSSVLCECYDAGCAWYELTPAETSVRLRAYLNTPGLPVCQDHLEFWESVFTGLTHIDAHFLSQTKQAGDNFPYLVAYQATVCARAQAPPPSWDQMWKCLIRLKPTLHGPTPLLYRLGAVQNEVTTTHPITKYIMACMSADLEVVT
# T1 sequence (Q9WMX2 1658-1711, stated change not applied): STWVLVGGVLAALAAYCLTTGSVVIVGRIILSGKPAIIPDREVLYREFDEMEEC
# Sequence of NS3/4A protease (P27958 1027-1657): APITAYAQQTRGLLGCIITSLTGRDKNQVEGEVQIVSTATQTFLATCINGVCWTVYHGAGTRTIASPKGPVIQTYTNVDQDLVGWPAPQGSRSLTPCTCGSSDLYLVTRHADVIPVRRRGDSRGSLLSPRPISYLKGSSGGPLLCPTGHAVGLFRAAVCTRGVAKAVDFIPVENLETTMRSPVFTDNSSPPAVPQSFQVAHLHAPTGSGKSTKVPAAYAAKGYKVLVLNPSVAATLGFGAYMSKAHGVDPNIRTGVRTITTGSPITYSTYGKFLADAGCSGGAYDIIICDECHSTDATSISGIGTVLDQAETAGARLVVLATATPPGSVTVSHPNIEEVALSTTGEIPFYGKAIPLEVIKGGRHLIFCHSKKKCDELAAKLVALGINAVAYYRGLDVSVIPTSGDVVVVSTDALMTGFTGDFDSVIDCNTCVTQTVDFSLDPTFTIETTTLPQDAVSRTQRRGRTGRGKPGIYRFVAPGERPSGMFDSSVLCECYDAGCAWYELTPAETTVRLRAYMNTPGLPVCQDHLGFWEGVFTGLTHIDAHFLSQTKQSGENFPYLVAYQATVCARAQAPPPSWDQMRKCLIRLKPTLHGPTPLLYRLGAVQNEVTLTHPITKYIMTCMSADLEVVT
# Sequence of NS3/4A protease (P27958 1658-1711): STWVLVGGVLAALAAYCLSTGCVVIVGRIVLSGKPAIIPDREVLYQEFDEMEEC
# Sequence of NS3/4A protein (Q9WMX2 1027-1657): as the sequence (Q9WMX2 1027-1657, stated change not applied) above
# Sequence of endogenous NS3/4A protease in Ava5 cells (Q9WMX2 1027-1657): as the sequence (Q9WMX2 1027-1657, stated change not applied) above
# Sequence of HCV NS3 protease (Q9WMX2 1027-1657): as the sequence (Q9WMX2 1027-1657, stated change not applied) above
molecule,measurement,setting,value
COc1ccc2c(O[C@@H]3C[C@H]4C(=O)N[C@]5(C(=O)O)C[C@H]5/C=C\CCCCC[C@H](NC(=O)OC5CCCC5)C(=O)N4C3)cc(-c3csc(NC(C)C)n3)nc2c1 [BILN-2061],EC50,[1],~2 nM
same,cellular toxicity as measured by MTS assay,[2],did not cause detectable cellular toxicity
"Cc1ccc(S(=O)(=O)N[C@@H](Cc2ccccc2)C(=O)CCl)cc1 [TPCK, N-tosyl-1-phenylalanine chloromethyl ketone, reference compound]",extracellular SEAP activity,[3]; [9],dose-dependent decrease
same,suppression of HCV replication,"[3]; at 0.2 μM, Ava5-EG(Δ4AB)SEAP cells, 72 hours",more than 50%
IFN-α,SEAP activity in the culture medium,[4],decreased
same,RNA levels of gadph (housekeeping gene),[5],remained the same
same,HCV RNA levels,[5]; especially after 3 days of treatment,declined
same,SEAP activity in the culture medium,"[3]; 0-50 units/ml, Ava5-EG(Δ4AB)SEAP clone 1",decreased
same,HCV RNA level (dot blot),[6],decreased
same,cellular NS3/4A protein level (western blot),[7],decreased
same,HCV NS3 protease levels,[8],declined
"IFN-γ: IFN-γ, known anti-HCV compound (Frese et al., 2002) (protein, UniProt P01579 24-161, looked up) Interferon gamma: QDPYVKEAENLKKYFNAGHSDVADNGTLFLGILKNWKEESDRKIMQSQIVSFYFKLFKNFKDDQSIQKSVETIKEDMNVKFFNSNKKKRDDFEKLTNYSVTDLNVQRKAIHELIQVMAELSPAAKTGKRKRSQMLFRG",extracellular SEAP activity,[3]; [9],repressed
same,EC50 (effective concentration for 50% inhibition),"[3]; extracellular SEAP activity, Ava5-EG(Δ4AB)SEAP cells, 72 hours",below 10 IU/ml
